Experimental data as given in patent publication US20180022734A1 (Sound Biopharmaceuticals Ltd., priority 2015, published 2018).

Legend:
[1] = Pharmacokinetics and organ distribution after intravenous administration of Sunitinib, Compound 1 and Compound 2 in mice; set-up: AUCiv: unit not given beside the values; conditions: mice
Description: Relative Exposure(RE)=AUCi sample/AUCi control
AUCi—area under curve for the i^th organ or tissue; RE>1 indicates targeting at the organ or tissue, with larger RE indicating greater targeting; RE≦1 indicates non-targeting.
RTE refers to the multiple of the percent of drug content in a tissue of sample group with respect to total drug amount in the body vs. that in a control group. Positive RTE values indicate enhanced targeting effects and the more positive the more the multiple of enhancement and the more the enhanced targeting. In contrast, negative RTE values indicate reduced targeting effects. Value 0 indicate no influence to the tissue.
0.083 h, 0.25 h, 0.5 h, 1 h, 3 h, 8 h post injection, blood was taken by eyeball removal and the mice were sacrificed by cervical dislocation. Tissues were perfused with normal saline and livers and kidneys were removed and cleaned with normal saline. The blood samples were centrifuged to obtain supernatants and stored at −20° C. 50 μL plasma sample and 50 μL internal standard (clozapine) working solution was vortexed with 300 μL MeOH and then centrifuged. 150 μL upper organic phase was obtained and mixed with 150 μL water, followed by centrifugation. 10 μL supernatant was sampled for analysis. The tissue samples were weighted and mixed homogeneously with 10 times weight of water. Since the samples were 10-time diluted, the concentration of the tissue would be 10 times the results determined. The heart tissue was 5-time diluted. 100 μL homogenate was mixed with 50 μL internal standard (clozapine) working solution and 300 μL MeOH and then centrifuged. 150 μL upper organic phase was obtained and mixed with 150 μL water, followed by centrifugation. 10 μL supernatant was sampled for analysis.

[2] = Oral route (intragastric gavage) study of Sunitinib and compounds 1 and 2 in mice; format: in vivo; set-up: AUCpo: unit not given beside the values; conditions: mice, intragastric gavage
Description: Animal experiments: 24 mice in each group were divided into 8 sub-groups.

[3] = Stability of compounds 1 and 2 in MeOH stock solution and with biomass; format: physicochemical
Description: No prodrug was detected in organs except for spleen during processing. […] The prodrugs may be converted to Sunitinib or other metabolite during processing or in vivo.

[4] = system: pSTAT3; assay: Effects on STAT3 phosphorylation in A549 cell line; format: cell-based, human; conditions: 10 μM
Experimental: (§1) For in vitro tests, compounds were directly dissolved in 10 mM DMSO and stored at −20° C. For in vivo tests, the compounds were dissolved in DMSO and neutralized by Tween 80 (DMSO:Tween=1:1) and further neutralized by PBS (pH 7.4). The final concentrations of DMSO and Tween-80 were 5%.

[5] = system: A549; NCI-H460; 786-O; Caki-1; HT-29; MCF-7; assay: 72 hour cytotoxicity (CCK8) in different cell lines; format: cell-based, human; conditions: 72 hours, CCK8; FIG. 5a-f
Description: A549 human non-small cell lung cancer cell line, NCI-H460 human non-small cell lung cancer cell line, 786-O human renal cell line, Caki-1 human renal cell line, HT-29 human colon cancer cell line, MDA-MB-231 human breast cancer cell line, and MCF-7 human breast cancer cell line was purchased from Chinese Academy of Science Shanghai Branch. PLC/PRF-5 human hepatoma cell line and Hepal-6 mouse hepatoma cell line were obtained from Institute of Biochemistry and Cell Biology, SIBS, CAS (SIBCB). Cell lines A549, Caki-1, HT-29, MDA-MB-231, MCF-7, PLC/PRF-5 and Hepal-6 were cultured in DMEM medium (Gibco, Life Technologies, China) and cell lines NCI-H460 and 786-O were cultured in RPMI-1640 medium (Gibco, Life Technologies, China). 10% HI fetal bovine serum was purchased from Gibco, Life Technologies, USA and 1% penicillin/streptomycin was obtained from Hyclone.
Approx. 2,000 cells in 50 μL complete medium were plated on each well of a 96-well plate and incubated at 37° C., 5% CO2 overnight. Drugs at concentrations of 0.02 to 10 μM were dissolved in 0.1% DMSO, followed by addition into each well. After incubation for 72 hours, 10 μL CCK8 (Dojindo) was added into each well, followed by incubation at 37° C. for another 4 hours. The OD values were obtained by TECAN Microplate Reader at 450 nm.
as §1

[6] = system: 786-O cell or A549 cell; assay: Cell morphology and survival rate after 4 to 8 hours incubation; format: cell-based, human
[7] = Acute toxicity test: maximum tolerance dosage (MTD) determination; format: in vivo, BALB/c mice
Experimental: Methods: Femal BALB/c mice, 4-5 weeks old, weighted greater than 17 g, were used for the test. […] The body weights and conditions of the mice were recorded.
In contrast, the body weights of mice in compound 2 group increased 6.0% in average.
To further explore the toxicity of the compounds, blood was collected after 14-day treatment of drugs and critical biochemical index were analyzed.

[8] = system: cancer cell xenograft; assay: Pharmacodynamic tests on mice xenograft transplantation model; format: in vivo
Experimental: as §1
5×10^6 cancer cells were subcutaneously injected to the right side of mouse. Drug was intraperitoneally injected at dosages of 1.5 mg/kg, 7.5 mg/kg, 30 mg/kg to the mice, once a day, for 2 weeks when average tumor size reached 75 to 150 mm^3. The size of the tumor was measured every other day. […] Compound 1 had less efficacy.
We then performed the test through oral route. 5×10^6 cancer cells were subcutaneously injected to the right side of mouse. Drug was orally administered at dosages of 5 mg/kg, 15 mg/kg, 45 mg/kg to the mice, once a day, for 2 weeks when average tumor size reached 75 to 150 mm^3. The size of the tumor was measured every other day.

[9] = 5.13 mg/kg Compound 1, 5.32 mg/kg Compound 2, 5.14 mg/kg Sunitinib malate, All (sum of organs and plasma)
[10] = 5.13 mg/kg Compound 1, 5.32 mg/kg Compound 2, 5.14 mg/kg Sunitinib malate, heart
[11] = 5.13 mg/kg Compound 1, 5.32 mg/kg Compound 2, 5.14 mg/kg Sunitinib malate, kidney
[12] = 5.13 mg/kg Compound 1, 5.32 mg/kg Compound 2, 5.14 mg/kg Sunitinib malate, liver
[13] = 5.13 mg/kg Compound 1, 5.32 mg/kg Compound 2, 5.14 mg/kg Sunitinib malate, lung
[14] = 5.13 mg/kg Compound 1, 5.32 mg/kg Compound 2, 5.14 mg/kg Sunitinib malate, plasma
[15] = 5.13 mg/kg Compound 1, 5.32 mg/kg Compound 2, 5.14 mg/kg Sunitinib malate, spleen
[16] = 19.248 mg/kg Compound 1, 20 mg/kg Compound 2, 20 mg/kg Sunitinib malate
[17] = oral once a day for 14 days, 175 mg/kg
[18] = repeated test, oral once a day, 200 mg/kg

Structure (SMILES): CCN(CC)CCNC(=O)c1c(C)[nH]c(C=C2C(=O)N(CC(=O)Oc3ccccc3)c3ccc(F)cc32)c1C [Compound 2, N-[2-(diethylamino)ethyl]-5-[(5-fluoro-2-oxo-1-(phenylcarboxymethyl)-2,3-indolin-3-ylmethylene)]-2,4-dimethyl-1H-pyrrolidine-3-carboxamide]
- AUC [1, 9]: 3926.9 ng·h/mL
- Cmax [1, 9]: 2673.1 ng/mL
- AUC [1, 10]: 97.0 ng·h/mL
- Cmax [1, 10]: 122.4 ng/mL
- AUC [1, 11]: 474.2 ng·h/mL
- Cmax [1, 11]: 258.0 ng/mL
- AUC [1, 12]: 1047.1 ng·h/mL
- Cmax [1, 12]: 742.7 ng/mL
- AUC [1, 13]: 1235.0 ng·h/mL
- Cmax [1, 13]: 763.8 ng/mL
- AUC [1, 14]: 408.8 ng·h/mL
- AUCall [1, 14]: 408.8 ng·h/mL
- Cl [1, 14]: 324.9 mL/h
- Cmax [1, 14]: 564.4 ng/mL
- Tmax [1, 14]: 4.8 min
- V [1, 14]: 406.1 mL
- AUC [1, 15]: 664.8 ng·h/mL
- Cmax [1, 15]: 221.8 ng/mL
- AUCiv ([1]; Div 3.86, in ng·h/mL): 408.8
- Cmax, times than that of the control ([1]; control = Sunitinib): approx. 5 times
- RTE analysis: distribution proportions in organs ([1]; vs Sunitinib control): increased distribution proportions in spleen and lung, decreased proportions in heart and kidney but great enhancement in plasma
- RE ([1]; vs Sunitinib control, heart): 0.13
- RTE ([1]; vs Sunitinib control, heart): −0.55
- RE ([1]; vs Sunitinib control, kidney): 0.16
- RTE ([1]; vs Sunitinib control, kidney): −0.45
- RE ([1]; vs Sunitinib control, liver): 0.47
- RTE ([1]; vs Sunitinib control, liver): 0.66
- RE ([1]; vs Sunitinib control, lung): 0.28
- RTE ([1]; vs Sunitinib control, lung): −0.01
- RE ([1]; vs Sunitinib control, plasma): 1.12
- RTE ([1]; vs Sunitinib control, plasma): 2.93
- RE ([1]; vs Sunitinib control, spleen): 0.22
- RTE ([1]; vs Sunitinib control, spleen): −0.23
- AUC, times higher than Sunitinib [2]: approx. 3.5 times
- AUC0→∞ [2, 16]: 61.5 ng·h/mL
- Cl [2, 16]: 4094.7 mL/h
- Cmax [2, 16]: 27.00 ng/mL
- Tmax [2, 16]: 1.50 h
- t1/2 [2, 16]: 3.89 h
- AUCpo ([2]; Dpo 15.00, in ng·h/mL): 951.1
- stability in the event of coexisting with biomass ([3]; coexisting with biomass): easy to degrade
- stability in MeOH stock solution ([3]; stability test period: 7 days): stable
- inhibition of pSTAT3 [4]: strong inhibition
- IC50 values among several cell lines [5]: comparable
- tumor killing effects / cytotoxicity [5]: relatively strong tumor killing effects
- cell survival ([6]; 786-O cell or A549 cell, incubated for 8 hours): mass cell death
- cell morphology ([6]; cancer cells incubated for 4 hours): changed to round and suffered from stress
- critical biochemical index (AST, ALT, CHE, urate, blood urea nitrogen, glucose, LDH, CK, CKMB) ([7]; blood after 14-day treatment, 200 mg/kg): except for AST and ALT, these indices were all within normal ranges
- body weights increased in average [7, 17]: 6.0%
- condition of the mice [7, 17]: performed similarly with negative control group
- influence on body weight ([7]; repeated test, oral once a day, 100 mg/kg): little influence on body weight
- body weights increased in average [7, 18]: 6.0%
- condition of the mice [7, 18]: performed similarly with negative control group
- efficacy on tumor size ([8]; intraperitoneally injected 1.5, 7.5, 30 mg/kg once a day for 2 weeks): improved efficacy than Sunitinib
- efficacy on tumor size ([8]; orally administered 5, 15, 45 mg/kg once a day for 2 weeks): improved efficacy than Sunitinib
